Measurements taken from the NIST ThermoML archive (doi:10.1016/j.tca.2006.04.016).

Details: 101.33 kPa, Liquid, Vibrating tube method

CN(C)CCCN [N,N-dimethyl-1,3-propanediamine]
Details | mass density [kg/m3]
278.15 K | 830.37
278.65 K | 829.93
279.15 K | 829.49
279.65 K | 829.05
280.15 K | 828.61
280.65 K | 828.17
281.15 K | 827.73
281.65 K | 827.29
282.15 K | 826.84
282.65 K | 826.4
283.15 K | 825.96
283.65 K | 825.52
284.15 K | 825.08
284.65 K | 824.64
285.15 K | 824.2
285.65 K | 823.76
286.15 K | 823.32
286.65 K | 822.88
287.15 K | 822.44
287.65 K | 822
288.15 K | 821.56
288.65 K | 821.12
289.15 K | 820.67
289.65 K | 820.23
290.15 K | 819.79
290.65 K | 819.35
291.15 K | 818.91
291.65 K | 818.47
292.15 K | 818.03
292.65 K | 817.58
293.15 K | 817.14
293.65 K | 816.7
294.15 K | 816.26
294.65 K | 815.82
295.15 K | 815.37
295.65 K | 814.93
296.15 K | 814.49
296.65 K | 814.05
297.15 K | 813.6
297.65 K | 813.16
298.15 K | 812.72
298.65 K | 812.27
299.15 K | 811.83
299.65 K | 811.39
300.15 K | 810.94
300.65 K | 810.5
301.15 K | 810.06
301.65 K | 809.61
302.15 K | 809.17
302.65 K | 808.72
303.15 K | 808.28
303.65 K | 807.84
304.15 K | 807.39
304.65 K | 806.95
305.15 K | 806.5
305.65 K | 806.06
306.15 K | 805.61
306.65 K | 805.17
307.15 K | 804.72
307.65 K | 804.28
308.15 K | 803.83
308.65 K | 803.39
309.15 K | 802.94
309.65 K | 802.5
310.15 K | 802.05
310.65 K | 801.61
311.15 K | 801.16
311.65 K | 800.72
312.15 K | 800.27
312.65 K | 799.82
313.15 K | 799.38
313.65 K | 798.93
314.15 K | 798.48
314.65 K | 798.04
315.15 K | 797.59
315.65 K | 797.14
316.15 K | 796.69
316.65 K | 796.25
317.15 K | 795.8
317.65 K | 795.35
318.15 K | 794.9
318.65 K | 794.45
319.15 K | 794.01
319.65 K | 793.56
320.15 K | 793.11
320.65 K | 792.66
321.15 K | 792.21
321.65 K | 791.76
322.15 K | 791.31
322.65 K | 790.86
323.15 K | 790.41
323.65 K | 789.96
324.15 K | 789.52
324.65 K | 789.06
325.15 K | 788.62
325.65 K | 788.17
326.15 K | 787.72
326.65 K | 787.26
327.15 K | 786.81
327.65 K | 786.36
328.15 K | 785.91
328.65 K | 785.46
329.15 K | 785.01
329.65 K | 784.56
330.15 K | 784.11
330.65 K | 783.65
331.15 K | 783.2
331.65 K | 782.75
332.15 K | 782.3
332.65 K | 781.84
333.15 K | 781.39
333.65 K | 780.94
334.15 K | 780.49
334.65 K | 780.03
335.15 K | 779.58
335.65 K | 779.12
336.15 K | 778.67
336.65 K | 778.22
337.15 K | 777.76
337.65 K | 777.31
338.15 K | 776.85
338.65 K | 776.4
339.15 K | 775.94
339.65 K | 775.49
340.15 K | 775.03
340.65 K | 774.57
341.15 K | 774.11
341.65 K | 773.66
342.15 K | 773.2
342.65 K | 772.74
343.15 K | 772.29
343.65 K | 771.83
344.15 K | 771.37
344.65 K | 770.91
345.15 K | 770.45
345.65 K | 769.99
346.15 K | 769.53
346.65 K | 769.08
347.15 K | 768.62
347.65 K | 768.16
348.15 K | 767.7
348.65 K | 767.24
349.15 K | 766.78
349.65 K | 766.32
350.15 K | 765.86
350.65 K | 765.4
351.15 K | 764.94
351.65 K | 764.48
352.15 K | 764.02
352.65 K | 763.56
353.15 K | 763.1
353.65 K | 762.64
354.15 K | 762.17
354.65 K | 761.71
355.15 K | 761.25
355.65 K | 760.79
356.15 K | 760.33
356.65 K | 759.86
357.15 K | 759.4
357.65 K | 758.94
358.15 K | 758.48
358.65 K | 758.01
359.15 K | 757.55
359.65 K | 757.08
360.15 K | 756.62
360.65 K | 756.15
361.15 K | 755.69
361.65 K | 755.22
362.15 K | 754.75
362.65 K | 754.28
363.15 K | 753.82
